Consider two compounds from patent US11083795B2, “Amorphous metal-organic frameworks” (Cambridge Enterprise Limited, priority 2015, dated 2021).

Structures are written as SMILES.

The subject of data set [1] is HeLa cells. Nature of the data set: Drug cellular uptake by confocal microscopy. It counts as cell-based. The following applies: 24 h incubation; frameworks 0.5 mg/mL, free calcein 0.075 mg/mL. As to the method:
HeLa cells were seeded in a NUNC™ imaging four-well plate at a density of 1.11×10^5 cell/mL and incubated for 24 h at 37° C. with 5% CO2 in DMEM supplemented with 10% (v/v) Fetal Bovine Serum (FBS), 2 mM L-glutamine, 100 units/mL penicillin and 100 μg/mL streptomycin.
The cells were washed twice with PBS and incubated together with calcein-loaded crystalline Zr-containing metal-organic frameworks (0.5 mg/mL) for 24 h. The amorphous frameworks were obtained by mechanical amorphization of calcein-loaded crystalline Zr-containing metal-organic frameworks. The metal-organic frameworks were well-dispersed in culture media before they were added to the cells.
Untreated cell and free calcein (at a concentration of 0.075 mg/mL) were included as controls.
After incubation for 24 h, the cells were washed several times to remove the non-internalized particles. Cells then were incubated for 15 min with Hoechst 33342 (H33342) and 1× of CellMask™ Orange to stain the nucleus and cell membrane, respectively (each dye provided at a concentration of 5 μg/mL). The cells were then washed extensively to remove the dyes and fresh media (without phenol red) was added to each sample. Finally, the plate was placed on a Leica TCS SP5 confocal microscope for imaging. The microscope was equipped with 405 diode, argon and HeNe lasers. Leica LAS AF software was used to analyse the images.

Data set [2] deals with rat. Details: lethal dose LD50: unit not given here. The following applies: cited from earlier work.

As for `O=C(O)CN(CC(=O)O)Cc1cc2c(cc1O)Oc1cc(O)c(CN(CC(=O)O)CC(=O)O)cc1C21OC(=O)c2ccccc21` [calcein], the “calcein signal in HeLa cells by confocal microscopy” value in data set [1] is “stained weakly in the form of bright vesicles”.

With `CC(=O)[O-].CC(=O)[O-].[O-2].[Zr+4]` [zirconyl acetate], in data set [2] (in rats), the “lethal dose LD50” value was approximately 4.1. In addition, the “oral lethal dose, LD50” value in data set [2] (oral, rat model) is given as “around 4.1 g/kg”.
